The values below come from patent publication US11708319B2, “Biphenyl amides with modified ether groups as HSP90 inhibitors and HSP70 inducers” (THE UNIVERSITY OF KANSAS, priority 2014, dated 2023).

The subject of one assay is 50B11 cells. In words: Mitochondrial bioenergetic assessment (XF96 extracellular flux analyzer, OCR and ECAR). It is filed as cell-based. As to conditions: 24 hrs, FIG. 4. How it is done: 50B11 cells were treated for 24 hr with DMSO (1), 10 nM (2,6,10), 100 nM (3,7,11), 500 nM (4,8,12) or 1,000 nM (5,9,13) of compounds 74 (2-5), 75 (6-9) or 59 (10-13). Mitochondrial respiration was measured in the intact cells using an XF96 extracellular flux analyzer that provides concurrent measures of mitochondrial oxygen consumption rate (OCR) and extracellular acidification rate (ECAR) as an indication of glycolytic activity. Results are plotted OCR versus ECAR. The net effect of the drugs on oxidative phosphorylation and glycolysis is indicated in each quadrant. Results are mean±standard error of the mean (SEM) (n=6).
Oxygen consumption rate (OCR) was assessed in the 50B11 transformed sensory neuron cell line, using an XF96 Extracellular Flux Analyzer (Seahorse Biosciences, North Billerica, Mass.). 50B11 cells were seeded into the 96 well plates at 40,000 cells per well and maintained in high glucose DMEM supplemented with 10% fetal bovine serum (Atlas Biologics, Fort Collins Colo.), 5 μg/ml blasticidin and antibiotics at 37° C. The maintenance media was changed to serum free unbuffered DMEM supplemented with 1 mM pyruvate and 5.5 mM D-glucose and the cells incubated at 37° C. in room air for one hour before starting the assay. After introducing the plate into the XF96 analyzer, the basal oxygen consumption rate (OCR) was measured prior to the addition of 1 μg/ml oligomycin to inhibit the ATP synthase to measure the portion of the basal OCR that was coupled to ATP synthesis; residual OCR after oligomycin treatment is from uncoupled respiration (proton leak). […]
After the respiratory measures, the cells were harvested and the protein content of each well determined using a Bradford protein assay. OCR values were normalized to the total protein content of each well and ATP-linked respiration, proton leak, maximal respiratory capacity, spare respiratory capacity and respiratory control ratio were determined as described (Brand and Nicholls, 2011; Chowdhury, et al., 2012)

Assay [1] relates to Hsp70 protein expression in 50B11 cells. In words: Immunoblot analysis of Hsp70 protein expression. It is filed as cell-based. Particulars: 24 hr, 1 μM, FIGS. 3A & 3B. How it is done: FIGS. 3A & 3B show the induction of Hsp70 protein expression by some of the compounds described herein. […] In the immunoblot analysis, 50B11 cells were treated for 24 hr with 1 μM of the indicated analogs or 250 nM geldanamycin (GDA) as a positive control. […] Results are mean±standard error of the mean (SEM) (n=6). […] The remaining para-substituted and ortho-substituted compounds were similarly effective.
50B11 cells were treated with the indicated compounds for 24 hrs and were scraped into lysis buffer containing 50 mM Tris-HCl, pH 7.4, 150 mM NaCl, 1 mM EDTA, 1% NP-40, 0.5 mM sodium orthovandate, 40 mM NaF, 10 mM β-glycerophosphate, and Complete Protease Inhibitors (Roche Diagnostics). After 15 minutes on ice, the lysates were sonicated then centrifuged at 10,000×g for 10 min at 4° C. The protein concentration of the supernatant was estimated using a Bio-Rad protein assay and bovine serum albumin as the standard. Following SDS-PAGE, the proteins were transferred to nitrocellulose and the membrane incubated with 5% non-fat dry milk in phosphate buffered saline containing 0.1% Tween 20 (PBST) for 1-2 hrs at room temperature. The blots were probed with primary antibodies recognizing Hsp70 or R-actin at 4° C. overnight. The membranes were washed with PBST and subsequently incubated with HRP-conjugated secondary antibodies and immunoreactive proteins were visualized using chemiluminescence detection (GE Healthcare Life Sciences, Little Chalfont, Buckinghamshire, UK). The films were digitally scanned and densitometrically analyzed using ImageJ (NIH) software. Client protein degradation in MCF7 cells was performed as previously described (Urban, et al., 2010).
Background: A western blot detects proteins with antibodies after separation by electrophoresis.

The subject of assay [2] is Hsp70 promoter (1.5 kb region upstream of the start codon of the human HSPA1A gene) in 50B11 cells. The assay can be described thus: Luciferase reporter assay assessing Hsp70 induction. It is filed as cell-based. Particulars: for Hsp70 induction (luciferase), Mean: 50B11 cells treated 16 hrs, DMSO (negative control) assigned a value of 100. How it is done: The luciferase reporter assay was performed using a 1.5 kb region upstream of the start codon of the human HSPA1A gene to drive luciferase expression as previously described. 50B11 cells (Chen, et al., 2007) were grown in 10 cm dishes in maintenance medium and the cells were transfected using lipofectamine. Twenty four hour after transfection, the cells were re-seeded into 24 well plates at a density of 2×10^5 cells per well. After a 6 hrs period to permit attachment, the cells were treated with the indicated compounds for 16 hrs. Luciferase activity was assessed and normalized to the total protein concentration of each well.

In assay [3] the target is Hsp90 C-terminus nucleotide binding pocket. Particulars: low affinity; cited from earlier work.
Where [4] appears, read: 10 nM to 1,000 nM, FIG. 2, Table 2.

Each structure is given as a SMILES string. “Also recorded” adds a separate entry of the source.

With `CC(=O)NCCc1ccc(OC2CCC(OCc3ccc(Cl)cc3)CC2)cc1-c1cccc(F)c1` (centres unmarked) [Compound 59, N-(2-(5-((4-((4-chlorobenzyl)oxy)cyclohexyl)oxy)-3′-fluoro-[1,1′-biphenyl]-2-yl)ethyl)acetamide], the “Cellular respiration (in words)” value in the assay with 50B11 cells is “decreased cellular respiration”. Also, the “Hsp70 protein expression (immunoblot, in words)” value (from here on “Hsp70 protein expression”) in assay [1] was “less effective”. For the same compound, the “Hsp70 induction in luciferase assay (in words)” value (shortened to “Hsp70 induction … (in words)”) in assay [2] (setting [4]) is listed as “robust induction of luciferase activity”.

A word on the IC50: it is the midpoint of a concentration-inhibition curve. Regarding `CO[C@@H]1[C@@H](OC(N)=O)[C@@H](O)[C@H](Oc2ccc3c(O)c(NC(=O)c4ccc(O)c(CC=C(C)C)c4)c(=O)oc3c2C)OC1(C)C` [novobiocin], the IC50 in assay [3] is around 700 µM.

As for `COc1ccccc1COC1CCC(Oc2ccc3cc(NC(C)=O)c(=O)oc3c2C)CC1` (centres unmarked) [Compound 80, N-(7-((4-((2-methoxybenzyl)oxy)cyclohexyl)oxy)-8-methyl-2-oxo-2H-chromen-3-yl)acetamide], the “Hsp70 induction (luciferase), Mean” value in assay [2] (10 nM) is 130.87; in assay [2] (100 nM), 151.51; in assay [2] (500 nM), 129.16; in assay [2] (1000 nM), 142.77.

For `CC(=O)Nc1cc2ccc(OC3CCC(OCc4ccccc4Br)CC3)c(C)c2oc1=O` (centres unmarked) [Compound 79, N-(7-((4-((2-bromobenzyl)oxy)cyclohexyl)oxy)-8-methyl-2-oxo-2H-chromen-3-yl)acetamide], the “Hsp70 induction (luciferase), Mean” value is 105.83 in assay [2] (10 nM), 102.65 in assay [2] (100 nM), 97.09 in assay [2] (500 nM) and 91.42 in assay [2] (1000 nM).

On to `CC(=O)NCCc1ccc(OC2CCC(OCc3ccccc3)CC2)cc1-c1cccc(F)c1` (centres unmarked) [Compound 44, N-(2-(5-((4-(benzyloxy)cyclohexyl)oxy)-3′-fluoro-[1,1′-biphenyl]-2yl)ethyl)acetamide], for which the “Hsp70 protein expression” value in assay [1] is “induced Hsp70 protein expression”. Also, the “Hsp70 induction … (in words)” value in assay [2] (500 nM and 1,000 nM, FIG. 1) is listed as “highest level of Hsp70 expression”.

For the compound `CC(=O)NCCc1ccc(OC2CCC(OCc3ccc(Cl)cc3)[C@@H](O)[C@H]2O)cc1-c1cccc(F)c1` (stereo partly drawn) [Compound 75, N-(2-(5-(((2R,3S)-4-((4-chlorobenzyl)oxy)-2,3-dihydroxycyclohexyl)oxy)-3′-fluoro-[1,1′-biphenyl]-2-yl)ethyl)acetamide], the “Oxidative phosphorylation and glycolysis (OCR versus ECAR, in words)” value in the assay on 50B11 cells (10 nM to 1,000 nM) is “more effective at dose dependently increasing oxidative phosphorylation and glycolysis”. For the same compound, the “Cellular respiration (in words)” value with 50B11 cells is on record as “increased cellular respiration”. For the same compound, in assay [1], the “Hsp70 protein expression” value is recorded as “equivalent levels of Hsp70 induction; also recorded: increased Hsp70 protein expression”. Moreover, in assay [2] (setting [4]), the “Hsp70 induction … (in words)” value is listed as “good induction of Hsp70”.

Consider `CC(=O)Nc1cc2ccc(OC3CCC(OCc4ccc(Cl)cc4)CC3)c(C)c2oc1=O` (centres unmarked) [Compound 78], for which the “Hsp70 induction (luciferase), Mean” value in assay [2] (10 nM) came to 85.73; in assay [2] (100 nM), 94.52; in assay [2] (500 nM), 97.39; in assay [2] (1000 nM), 105.69.

In the case of `CC(=O)NCCc1ccc(O)cc1-c1cccc(F)c1` [Compound 20], in assay [2] (setting [4]), the “Hsp70 induction … (in words)” value is “inactive”. Moreover, the “Hsp70 induction (luciferase), Mean” value in assay [2] (10 nM) is 88.07; in assay [2] (100 nM), 87.40; in assay [2] (500 nM) it was 93.87; in assay [2] (1000 nM) it was 96.56.

On to `CC(=O)NCCc1ccc(OC2C=CC(OCc3ccc(Cl)cc3)CC2)cc1-c1cccc(F)c1` (centres unmarked) [Compound 74], for which the “Hsp70 protein expression” value in assay [1] is on record as “equivalent levels of Hsp70 induction”.

Take `CC(=O)Nc1cc2ccc(OC3CCC(OCc4ccccc4)CC3)c(C)c2oc1=O` (centres unmarked) [Compound 77]: the “Hsp70 induction (luciferase), Mean” value is on record as 146.19 in assay [2] (10 nM), 106.40 in assay [2] (100 nM), 102.93 in assay [2] (500 nM) and 100.29 in assay [2] (1000 nM).
